{"source": "patent US20050203174A1", "about": "“Combination therapies using leptomycin B” (Kosan Biosciences, Inc., priority 2004, published 2005)", "tested_on": "colon cancer cell line DLD-1", "experiment": "Cell viability assay (CellTiter-Glo) and combination effect analysis of leptomycin B plus co-agent", "format": "cell-based, Human", "conditions": "combination with leptomycin B, DLD-1 cells, average CI over fraction affected 0.2 to 0.9; for Combination Index, LMB First: 24 hours of LMB, then drug added and incubated for 48 hours; for Combination Index, Co-Agent First: drug alone for 24 hours followed by addition of LMB for 48 hours; for Combination Index, Simultaneous: simultaneous exposure to LMB and drug for 72 hours, constant ratio of IC50s", "experimental": "The efficacy of a combination of leptomycin B and specific chemotherapeutic co-agents was determined. The additive, synergistic, or antagonistic effect of the combination of leptomycin B and a co-agent was calculated for each administration regimen using Calcusyn software (Biosoft, Cambridge, United Kingdom). This software calculates a combination index using the following algorithm: CI=[D]1/[Dx]1+[D]2/[Dx]2 where • CI is the combination index; • [D]1 and [D]2 are the concentrations of the two agents being tested (i.e., LMB and the co-agent) that, in combination provide a response of x % in the assay; and • [Dx]1 and [Dx]2 are the concentrations of the two agents that, when used alone, produce a response of x % in the assay.\nA CI value of one means the combined effect of the two agents is additive. A CI value of less than one means that the two agents act synergistically. A CI value of greater than one means that the two agents act antagonistically.\nThe area under the curve where the fraction affected of cells (FA) ranged from 0.2 to 0.9 was calculated, to generate average CI values as shown in Table 1 for colon cancer cell line DLD-1.\nHuman colon adenocarcinoma cell line, DLD-1, was obtained from American Type Culture Collection (Manassas, Va.). […] Leptomycin B was produced by fermentation of a high producing isolate from Streptomyces sp. […] LMB is also available from commercial sources, such as Sigma-Aldrich. Other anti-cancer agents were either purchased commercially (e.g., from Sigma Chemical Co. (St. Louis, Mo.) or from Sequoia Research Products (Oxford, UK)).\nCells were seeded in duplicate in 96-well microtiter plates at a density of 4,000 cells per well and allowed to attach overnight. Cells were treated with LMB and the corresponding cytotoxic drug at varying concentrations, ranging from 0.5 picomolar (“pM”) to 50 micromolar (“μM”), for 3 days. Cell viability was determined using the CellTiter-Glo luminescent cell viability assay (Promega). For the drug combination assay, cells were seeded in duplicate in 96-well plates (4,000 cells/well). […] Based on the IC50 values of each individual drug, combined drug treatment was designed at constant ratios of two drugs, i.e., equivalent to the ratio of their IC50. Three treatment schedules were used: The first schedule used simultaneous exposure to both LMB and drug for 72 hours. In the second schedule, the cells were exposed to 24 hours of LMB. The drug was then added to the cells and incubated for 48 hours. In the third schedule, cells were exposed to the drug alone for 24 hours followed by addition of LMB for 48 hours. Cell viability was determined by the CellTiter-Glo luminescent cell viability assay. Synergism, additivity, or antagonism was determined by median effect analysis using the combination index (CI) calculated using Calcusyn (Biosoft, Cambridge, UK), as described above."}
{"smiles": "COc1cccc2c1C(=O)c1c(O)c3c(c(O)c1C2=O)C[C@@](O)(C(=O)CO)C[C@@H]3O[C@H]1C[C@H](N)[C@H](O)[C@H](C)O1", "note": "[Doxorubicin, doxorubicin]", "values": [{"measurement": "Combination Index, LMB First", "value": "0.96 ± 0.05"}, {"measurement": "Combination Index, Co-Agent First", "value": "0.89 ± 0.01"}, {"measurement": "Combination Index, Simultaneous", "value": "0.84 ± 0.12"}]}
{"smiles": "CCc1c2c(nc3ccc(OC(=O)N4CCC(N5CCCCC5)CC4)cc13)-c1cc3c(c(=O)n1C2)COC(=O)[C@]3(O)CC", "note": "[Irinotecan, irinotecan]", "values": [{"measurement": "Combination Index, LMB First", "value": "0.77 ± 0.05"}, {"measurement": "Combination Index, Co-Agent First", "value": "0.50 ± 0.001"}, {"measurement": "Combination Index, Simultaneous", "value": "0.92 ± 0.08"}]}
{"smiles": "CC(=O)O[C@@]12CO[C@@H]1C[C@H](O)[C@@]1(C)C(=O)[C@H](O)C3=C(C)[C@@H](OC(=O)[C@H](O)[C@@H](NC(=O)OC(C)(C)C)c4ccccc4)C[C@@](O)([C@@H](OC(=O)c4ccccc4)[C@H]21)C3(C)C", "note": "[Docetaxel, docetaxel]", "values": [{"measurement": "Combination Index, LMB First", "value": "1.06 ± 0.04"}, {"measurement": "Combination Index, Co-Agent First", "value": "0.95 ± 0.07"}, {"measurement": "Combination Index, Simultaneous", "value": "1.19 ± 0.14"}]}
{"smiles": "O=C(CCCCCCC(=O)Nc1ccccc1)NO", "note": "[SAHA, suberoylanilide hydroxamic acid]", "values": [{"measurement": "Combination Index, LMB First", "value": "0.91 ± 0.04"}, {"measurement": "Combination Index, Co-Agent First", "value": "1.03 ± 0.11"}, {"measurement": "Combination Index, Simultaneous", "value": "0.88 ± 0.04"}]}
{"smiles": "C/C1=C/C[C@@H](/C(C)=C/c2csc(C)n2)OC(=O)C[C@H](O)C(C)(C)C(=O)[C@H](C)[C@@H](O)[C@@H](C)CCC1", "note": "[Epo D, epothilone D]", "values": [{"measurement": "Combination Index, LMB First", "value": "1.05 ± 0.03"}, {"measurement": "Combination Index, Co-Agent First", "value": "0.92 ± 0.05"}, {"measurement": "Combination Index, Simultaneous", "value": "1.06 ± 0.10"}]}
{"smiles": "CC[C@H](C)[C@@H](COC(Cc1ccccc1)C(=O)N[C@@H](CCS(C)(=O)=O)C(=O)OC(C)C)NC[C@@H](N)CS", "note": "(stereo partly drawn) [L-744832]", "values": [{"measurement": "Combination Index, LMB First", "value": "0.82 ± 0.05"}, {"measurement": "Combination Index, Co-Agent First", "value": "0.86 ± 0.11"}, {"measurement": "Combination Index, Simultaneous", "value": "0.84 ± 0.09"}]}
{"smiles": "CCC1(c2ccc(N)cc2)CCC(=O)NC1=O", "note": "(stereo not drawn) [Aminoglutethimide, aminoglutethimide]", "values": [{"measurement": "Combination Index, LMB First", "value": "0.82 ± 0.05"}, {"measurement": "Combination Index, Co-Agent First", "value": "1.02 ± 0.18"}, {"measurement": "Combination Index, Simultaneous", "value": "0.89 ± 0.07"}]}
{"smiles": "C=CCNC1=C2C[C@@H](C)C[C@H](OC)[C@H](O)[C@@H](C)/C=C(\\C)[C@H](OC(N)=O)[C@@H](OC)/C=C\\C=C(/C)C(=O)NC(=CC1=O)C2=O", "note": "[17-AAG, 17-allylamino-17-demethoxygeldanamycin]", "values": [{"measurement": "Combination Index, LMB First", "value": "1.13 ± 0.05"}, {"measurement": "Combination Index, Co-Agent First", "value": "0.91 ± 0.09"}, {"measurement": "Combination Index, Simultaneous", "value": "1.15 ± 0.06"}]}
{"smiles": "Nc1ccn([C@@H]2O[C@H](CO)[C@@H](O)C2(F)F)c(=O)n1", "note": "[Gemcitabine, gemcitabine]", "values": [{"measurement": "Combination Index, LMB First", "value": "1.18 ± 0.05"}, {"measurement": "Combination Index, Co-Agent First", "value": "0.71 ± 0.31"}, {"measurement": "Combination Index, Simultaneous", "value": "0.97 ± 0.25"}]}
{"smiles": "CC(O)(CS(=O)(=O)c1ccc(F)cc1)C(=O)Nc1ccc(C#N)c(C(F)(F)F)c1", "note": "(stereo not drawn) [Bicalutamide, bicalutamide]", "values": [{"measurement": "Combination Index, LMB First", "value": "1.48 ± 0.32"}, {"measurement": "Combination Index, Co-Agent First", "value": "1.05 ± 0.02"}, {"measurement": "Combination Index, Simultaneous", "value": "1.02 ± 0.01"}]}
